Active and inactive are the calls of the source.
Key:
Troponin, cardiac muscle = Troponin, cardiac muscle (Homo sapiens, UniProt P19429+P45379+P63316); assay: Fluorescence-based biochemical high throughput dose response assay for activators of the calcium sensitivity of cardiac Regulated Thin Filaments (RTF). [Related pubchem assays (depositor defined):AID493008, AID493018, AID504382, AID504383]; assay type: protein-complex assay
HEK293 [1] = assay: inhibition of NOD1-driven NF-kB reporter – cell-based, luminescence, uHTS, primary screen (AID 1578); assay type: functional; settings: Homo sapiens
HEK293 [2] = assay: cells; assay type: functional, cell-based; settings: Homo sapiens
HEK293 [3] = assay: cells; assay type: functional, cell-based; settings: Homo sapiens; remark: listed apart in the source
[4] = Luminescence Cell-Based Dose Confirmation HTS to Identify Inhibitors of Platelet Dense Granule Release. [Related pubchem assays: 1663 (Primary HTS), 1678 (Summary of Project)]; assay type: functional
HEK293 [5] = assay: NOD2 signaling inhibitors in MDP-stimulated cells, cell-based, uHTS, luminescence (AID 2001); assay type: functional; settings: Homo sapiens
HEK293 [6] = assay: cells; assay type: functional, cell-based; settings: Homo sapiens; remark: listed apart in the source
[7] = general cell-killing toxicity readout – plate reader, dry powder samples, cytotoxicity control for PAX8 inhibitor project, dose response (AID 743021); assay type: functional, cell-based
[8] = viability of uninfected HEp-2 cells – cell-based, HTS, cytotoxicity control for RSV inhibitor project, dose response (AID 2410); assay type: functional; settings: human respiratory syncytial virus
[9] = target: T1, Short transient receptor potential channel 4 (Mus musculus, UniProt Q9QUQ5); assay: block of DAMGO-driven TRPC4 calcium entry – cell-based, HEK293 TRPC4/mu-opioid, Fluo-4 calcium, dose response (AID 434942); assay type: functional;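 further: potency of inhibitors blocking the TRPC4 calcium response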
T1 sequence (Q9QUQ5 whole entry): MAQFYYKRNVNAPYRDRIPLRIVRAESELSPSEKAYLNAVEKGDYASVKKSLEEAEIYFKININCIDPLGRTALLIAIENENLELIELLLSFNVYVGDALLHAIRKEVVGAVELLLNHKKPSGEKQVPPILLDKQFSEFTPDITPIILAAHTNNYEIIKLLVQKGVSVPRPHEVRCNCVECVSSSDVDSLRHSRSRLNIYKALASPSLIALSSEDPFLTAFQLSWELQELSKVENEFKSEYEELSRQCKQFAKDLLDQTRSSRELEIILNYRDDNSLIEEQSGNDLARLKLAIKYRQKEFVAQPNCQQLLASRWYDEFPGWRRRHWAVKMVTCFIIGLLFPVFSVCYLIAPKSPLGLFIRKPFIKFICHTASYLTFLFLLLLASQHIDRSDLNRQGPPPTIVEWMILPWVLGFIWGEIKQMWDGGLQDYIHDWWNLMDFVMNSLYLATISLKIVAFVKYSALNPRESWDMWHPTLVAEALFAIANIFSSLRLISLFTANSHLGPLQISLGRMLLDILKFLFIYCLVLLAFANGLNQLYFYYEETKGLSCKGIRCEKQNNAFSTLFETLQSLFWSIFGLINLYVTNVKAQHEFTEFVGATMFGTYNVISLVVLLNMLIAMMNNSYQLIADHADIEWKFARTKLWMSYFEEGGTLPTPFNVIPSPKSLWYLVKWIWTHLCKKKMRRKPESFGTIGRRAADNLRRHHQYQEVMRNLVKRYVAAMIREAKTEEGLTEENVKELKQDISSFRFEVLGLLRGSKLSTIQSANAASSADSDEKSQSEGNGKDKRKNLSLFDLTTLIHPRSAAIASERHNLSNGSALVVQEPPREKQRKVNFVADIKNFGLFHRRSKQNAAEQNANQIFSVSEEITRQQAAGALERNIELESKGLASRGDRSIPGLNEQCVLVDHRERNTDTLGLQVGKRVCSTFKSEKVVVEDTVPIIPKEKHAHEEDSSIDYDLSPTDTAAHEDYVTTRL

[10] = target: G-protein coupled receptor 55 (Homo sapiens, UniProt Q9Y2T6); assay: selective activators of receptor GPR55 – imaging, U2OS cells, beta-arrestin-GFP redistribution, primary screen (AID 1961); assay type: functional
Sequence of G-protein coupled receptor 55 (Q9Y2T6 whole entry): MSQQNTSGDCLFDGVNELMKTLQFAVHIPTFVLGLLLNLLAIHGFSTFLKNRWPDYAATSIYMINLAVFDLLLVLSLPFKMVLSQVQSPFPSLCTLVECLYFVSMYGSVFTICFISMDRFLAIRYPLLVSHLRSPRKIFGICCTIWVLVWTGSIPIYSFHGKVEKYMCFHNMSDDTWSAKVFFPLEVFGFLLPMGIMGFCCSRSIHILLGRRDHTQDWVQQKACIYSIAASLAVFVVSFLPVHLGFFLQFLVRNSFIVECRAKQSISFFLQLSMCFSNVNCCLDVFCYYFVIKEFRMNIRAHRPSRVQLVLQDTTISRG

[11] = target: Glyceraldehyde-3-phosphate dehydrogenase (Homo sapiens, UniProt P04406)
Sequence of Glyceraldehyde-3-phosphate dehydrogenase (P04406 whole entry): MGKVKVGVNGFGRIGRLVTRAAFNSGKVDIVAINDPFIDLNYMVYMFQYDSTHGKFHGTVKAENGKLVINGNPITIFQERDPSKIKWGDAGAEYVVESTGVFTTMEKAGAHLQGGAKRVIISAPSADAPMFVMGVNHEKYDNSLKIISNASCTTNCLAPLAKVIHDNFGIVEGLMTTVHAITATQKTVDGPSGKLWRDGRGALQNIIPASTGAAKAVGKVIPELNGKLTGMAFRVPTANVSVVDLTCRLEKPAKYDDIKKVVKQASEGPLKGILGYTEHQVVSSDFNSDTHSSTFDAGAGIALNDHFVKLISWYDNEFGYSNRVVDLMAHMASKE

[12] = target: T2, Alkaline phosphatase, tissue-nonspecific isozyme (Homo sapiens, UniProt P05186); assay: potency against alkaline phosphatase TNAP – biochemical, luminescent, dose response, SAR follow-up (AID 1056)
T2 sequence (P05186 whole entry): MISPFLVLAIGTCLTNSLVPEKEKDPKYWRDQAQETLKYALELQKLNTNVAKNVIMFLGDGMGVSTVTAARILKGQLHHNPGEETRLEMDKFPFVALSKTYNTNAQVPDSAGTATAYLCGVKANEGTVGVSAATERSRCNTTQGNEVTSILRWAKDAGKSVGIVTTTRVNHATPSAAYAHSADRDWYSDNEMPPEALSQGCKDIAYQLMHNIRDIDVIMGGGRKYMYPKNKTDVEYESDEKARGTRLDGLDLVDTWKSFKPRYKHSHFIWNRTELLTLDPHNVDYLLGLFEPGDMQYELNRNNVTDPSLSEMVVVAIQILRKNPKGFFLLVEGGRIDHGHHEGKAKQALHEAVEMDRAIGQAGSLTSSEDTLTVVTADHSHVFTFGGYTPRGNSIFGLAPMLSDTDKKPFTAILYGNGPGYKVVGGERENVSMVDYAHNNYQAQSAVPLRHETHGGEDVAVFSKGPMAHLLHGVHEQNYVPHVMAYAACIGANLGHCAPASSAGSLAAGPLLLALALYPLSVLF

[13] = NIH-3T3 fibroblast cytotoxicity, dose response, cytotoxicity control, cell-based, fluorescence, Alamar Blue, secondary assay (AID 2327); assay type: functional;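 further: NIH-3T3 mouse fibroblasts cultured with fluconazole at 8 µg/mL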
[14] = luciferase reporter signal suppression in cells – H4 neuroglioma cells, luminescence, dose response (AID 1990); assay type: functional, cell-based
[15] = system: Streptococcus sp. 'group A'; assay: Streptococcus pyogenes SK(-)GAS viability under kanamycin – luminescence, BacTiterGlo, confirmation, counter-screen for streptokinase expression inhibitor project, dose response (AID 1900); assay type: functional, organism-based
[16] = Luminescence Cell-Based Dose Response HTS to Identify Inhibitors of 5'UTR Stem-Loop Driven Prion Protein mRNA Translation in H4 Neuroglioblastoma Cells. [Related pubchem assays: 1827 (Project Summary), 1813 (Primary HTS)]; assay type: functional
[17] = alpha-synuclein stem-loop luciferase translation blockers – H4 neuroglioma cells, luminescence, confirmation (AID 1988); assay type: functional, cell-based
Streptokinase A = target: T3, Streptokinase A (Streptococcus pyogenes serotype M1, UniProt P10520); assay: viability-normalized secreted streptokinase activity reduction – plasminogen activation absorbance, OD405, dose response (AID 1914); assay type: functional, Streptococcus pyogenes M1 GAS;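 further: secreted streptokinase activity via plasminogen activation per viability signal from cell pellet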
T3 sequence (P10520 whole entry): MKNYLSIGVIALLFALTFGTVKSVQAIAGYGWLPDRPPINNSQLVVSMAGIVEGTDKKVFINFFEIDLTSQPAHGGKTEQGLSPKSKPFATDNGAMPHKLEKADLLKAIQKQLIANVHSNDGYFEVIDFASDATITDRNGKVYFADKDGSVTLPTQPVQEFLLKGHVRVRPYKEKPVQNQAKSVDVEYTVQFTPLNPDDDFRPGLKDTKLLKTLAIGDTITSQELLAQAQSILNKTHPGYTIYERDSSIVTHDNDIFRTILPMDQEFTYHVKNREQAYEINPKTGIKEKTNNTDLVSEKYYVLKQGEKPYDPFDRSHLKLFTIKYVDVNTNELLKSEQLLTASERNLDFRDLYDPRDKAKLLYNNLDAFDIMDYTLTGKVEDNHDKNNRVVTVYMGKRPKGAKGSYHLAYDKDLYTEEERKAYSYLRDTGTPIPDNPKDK

[18] = fluconazole-exposed Candida albicans growth modulators – fluorescence, retest, confirmation (AID 2467); assay type: functional, cell-based
Streptococcus = assay: GAS UMAA2166 growth inhibition – luminescence, BacTiterGlo, counter-screen for streptokinase expression inhibitor project, dose response (AID 1915); assay type: functional, organism-based;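 further: potency for reduction of bacterial viability or growth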
Nonstructural protein 1 = Nonstructural protein 1 (Influenza A virus, UniProt Q194T2); assay type: functional, Influenza A virus (A/California/07/2009(H1N1))
Sequence of Nonstructural protein 1 (Q194T2 whole entry): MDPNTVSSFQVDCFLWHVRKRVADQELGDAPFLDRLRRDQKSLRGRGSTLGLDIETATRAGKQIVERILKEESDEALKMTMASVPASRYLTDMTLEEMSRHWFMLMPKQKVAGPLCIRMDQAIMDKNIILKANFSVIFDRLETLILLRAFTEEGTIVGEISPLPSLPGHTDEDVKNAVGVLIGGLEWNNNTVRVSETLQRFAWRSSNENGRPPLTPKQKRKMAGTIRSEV

INS1 = assay: INS-1E survival protection against cytokine death – cell-based, luminescence, retest, dose response (AID 449756); assay type: functional; settings: Rattus norvegicus;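 further: cell death triggered by IL-1 beta plus TNF-alpha plus IFN-gamma mixture; protective hits raise ATP signal compared with cytokine alone wells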

In the case of `S=c1[nH]nc(-c2ccc(Cl)cc2)n1-c1ccc2c(c1)OCCO2`, the EC50 (Troponin, cardiac muscle) is reported as > 71.5 µM (inactive).
In the case of `COc1ccc(N(Cc2cc3cc(OC)ccc3nc2O)S(=O)(=O)c2ccc(NC(C)=O)cc2)cc1`, the EC50 (HEK293 [1]) is reported as > 20 µM (inactive), the IC50 (HEK293 [2]) is reported as 7.22 µM (active) and the IC50 (HEK293 [3]) is reported as > 20 µM (inactive). The EC50 [4] was > 112 µM (not active), the IC50 (HEK293 [5]) was > 20 µM (inactive) and the IC50 (HEK293 [6]) was > 20 µM (inactive). For the same molecule, the AC50 [7] was 49.1 µM (active).
For `Cc1ccc(Nc2cc(C)nc3ccc(C)cc23)cc1`, the CC50 [8] was 45.9 µM (active) and the EC50 [9] was 1.5 µM (active).
For `CCN(CC)C(=O)CC(c1ccc(N(C)C)cc1)c1c(OC)cc(OC)c2c(-c3ccccc3)cc(=O)oc12` (stereo unspecified), the EC50 [10] was 2.74 µM (active).
With `O=S(=O)(Nc1cccnc1)c1ccccc1OC(F)(F)F` the IC50 [11] was > 100 µM (not active) and the IC50 [12] was > 100 µM (inactive).
In the case of `Oc1c(Cl)cc(Cl)cc1/C=N/c1ccccc1N1CCCC1`, the CC50 [8] is reported as 20.9 µM (active) and the EC50 [10] is reported as > 32 µM (inactive).
In the case of `COc1cccc(/C=N/Nc2cc(N3CCOCC3)ncn2)c1O`, the EC50 [13] is reported as > 150 µM (inactive), the EC50 [14] is reported as 8.79 µM (active) and the EC50 [15] is reported as 9.07 µM (active). For the same molecule, the EC50 [16] was 4.01 µM (active), the EC50 [17] was 4.5 µM (active) and the EC50 (Streptokinase A) was > 150 µM (not active). For the same molecule, the EC50 [18] was 5.78 µM (active), the EC50 (Streptococcus) was 9.45 µM (active) and the IC50 (Nonstructural protein 1) was 5.96 µM (active). For the same molecule, the AC50 (INS1) was 3.04 µM (active).
For `CC(C)C[C@@H](CSc1ccccc1)N1CCN(CCc2ccccc2)CCC1=O`, the EC50 [10] was 6.56 µM (active).
